For assay [1], the system named is promastigotes of Leishmania donovani. As to the kind of experiment: Effect on promastigotes of Leishmania donovani (MTT viability assay, 72 h). It is filed as cell-based. Conditions: L. donovani promastigotes; for IC50: read-out: IC50 (half maximal inhibitory concentration). The procedure:
Leishmania (Leishmania) donovani (MHOM/ET/1967/HU3) was provided by Oswaldo Cruz Institute Leishmania Collection-Fiocruz-RJ-Brazil. Promastigotes were maintained in vitro at 26 °C in Schneider's medium, pH 7 (20% heat-inactivated fetal bovine serum (FBS), 100 U/mL penicillin, […] streptomycin, and 2% of male urine), as previously described. […] The plates were incubated for 72 h in a biological oxygen demand (B.O.D.) incubator at 26 °C. […] [30].The absorbance was measured using an ELISA plate reader (ELx800, BIOTEK) at 540 nm. Amphotericin® was used as a positive control. The viability of promastigotes incubated in the presence of different concentrations of adducts was determined by comparing to a culture control (L. donovani cultivated in Schneider only). The concentration that caused a 50% reduction in cell viability (IC50) was calculated by Probit analysis (SPSS 13.0 for Windows). Each experiment was performed in duplicate and repeated at least three times.
For orientation: Formazan colour is commonly taken as a measure of viable cells.

Assay [2] has as its system acetic acid-induced abdominal writhes. Set-up: method as in earlier work. Conditions: mice, ref 16 (Capim et al., Bioorg. Med. Chem. 2013); cited from earlier work.
Another assay relates to human red blood cells. As to the kind of experiment: Haemolytic assay towards human red blood cells. Conditions: HC50 red blood cells / IC50 L. donovani promastigotes. It is filed as cell-based. The procedure: Briefly, promastigotes in the logarithmic growth phase were cultured in 96-well cell culture plates at 1 × 10^6 parasites per well in […] of Schneider's medium with increasing concentrations of 3.12, 6.25, 12.5, 25, 50, 100, 200, and 400 µg/mL of Morita-Baylis-Hillman adduct. The plates were incubated for 72 h in a biological oxygen demand (B.O.D.) incubator at 26 °C. Cytotoxicity to promastigotes was evaluated by the 3-(4,5-dimethyl-2-thiazole)-2,5-diphenyltetrazolium bromide (MTT) colorimetric assay as described by Valadares et al..The absorbance was measured using an ELISA plate reader (ELx800, BIOTEK) at 540 nm. Amphotericin® was used as a positive control. The viability of promastigotes incubated in the presence of different concentrations of adducts was determined by comparing to a culture control (L. donovani cultivated in Schneider only). The concentration that caused a 50% reduction in cell viability (IC50) was calculated by Probit analysis (SPSS 13.0 for Windows). Each experiment was performed in duplicate and repeated at least three times. Haemolytic assays (HC50 > […]) towards human red blood cells were performed as described in the literature.

In the next assay the test system is L. donovani. Set-up: method as in PMID 27520941. Conditions: read-out: anti-leishmania activity; cited from earlier work.
A further assay relates to Leishmania. Conditions: read-out: IC50 (leishmanicidal activity), cited from earlier work.
Assay [3] concerns acetic acid-induced abdominal writhes. As to the kind of experiment: Acetic acid-induced abdominal writhes in mice. Format: in vivo. Conditions: unpublished results.
Where [4] appears, read: Figure 1, hybrid 1 and precursors.
[5] abbreviates: Figure 1, hybrid 5 and precursor eugenol.

“And” between values parts separate entries of the source, which are not always exact repeats. Equal values may be shown once. Read-outs that look alike come from different tables or passages of the source. Some results are limits rather than exact numbers.

As to “2-(Hydroxy-naphthalen-2-yl-methyl)-acrylic acid 4-chloro-6-naphthalen-1-yl-tetrahydro-pyran -2-ylmethyl ester [8g]”, in assay [1], the “IC50 (half maximal inhibitory concentration)” value was 24.51 ± 7.5 µg/mL and the IC50 came to 50.4 ± 15.4 µM.

Turning to “2-(Hydroxy-naphthalen-2-yl-methyl)-acrylic acid 6-ethyl-tetrahydro-pyran-2-ylmethyl ester [9g]”, in assay [1], the “IC50 (half maximal inhibitory concentration)” value stood at 9.73 ± 4.8 µg/mL and the IC50 was 27.5 ± 13.6 µM.

With `OC[C@H]1C[C@@H](Cl)C[C@@H](c2cccc3ccccc23)O1` (relative stereo) [compound 6, [(±)-(2,4,6-cis)-4-chloro-6-(naphthalen-1-yl)-tetrahydro-2H-pyran-2-yl]methanol], the IC50 in assay [1] (Leishmania donovani) was 47.5 µg/mL and 172 µM. For the same molecule, the “Calculated ED50” value in assay [2] is given as 27.97 μmol·kg^–1.

In the case of `C=C(C(=O)OCC1CC(Cl)CC(c2cccc3ccccc23)O1)C(O)c1ccccc1[N+](=O)[O-]` (stereo not shown) [8a, 2-[Hydroxy-(2-nitro-phenyl)-methyl]-acrylic acid 4-chloro-6-naphthalen-1-yl-tetrahydro-pyran-2-ylmethyl ester], the IC50 in assay [1] (Leishmania donovani) was 7.09 µg/mL and 14.7 µM. Also, the “SIrb (selectivity index on red blood cell) = HC50/IC50” value in the assay on human red blood cells is given as more than 56.40.

`C=C(C(=O)OCC1CC(Cl)CC(c2cccc3ccccc23)O1)C(O)c1cccc([N+](=O)[O-])c1` (stereo not shown) [8b, 2-[Hydroxy-(3-nitro-phenyl)-methyl]-acrylic acid 4-chloro-6-naphthalen-1-yl-tetrahydro-pyran-2-yl-methyl ester]: in assay [1] (Leishmania donovani), the IC50 was 8.76 µg/mL and 18.2 µM.

With `C=C(C(=O)OCC1CC(Cl)CC(c2cccc3ccccc23)O1)C(O)c1ccc([N+](=O)[O-])cc1` (stereo not shown) [8c, 2-[Hydroxy-(4-nitro-phenyl)-methyl]-acrylic acid 4-chloro-6-naphthalen-1-yl-tetrahydro-pyran-2-ylmethyl ester], the IC50 in assay [1] (Leishmania donovani) was 9.05 µg/mL and 18.8 µM.

Consider `C=C(C(=O)OCC1CC(Cl)CC(c2cccc3ccccc23)O1)C(O)c1ccccn1` (stereo not shown) [8d, 2-(Hydroxy-pyridin-2-yl-methyl)-acrylic acid 4-chloro-6-naphthalen-1-yl-tetrahydro-pyran-2-yl methyl ester], for which the IC50 in assay [1] (Leishmania donovani) was 61.9 µg/mL and 142 µM.

With `C=C(C(=O)OCC1CC(Cl)CC(c2cccc3ccccc23)O1)C(O)c1cccnc1` (stereo not shown) [8e, 2-(Hydroxy-pyridin-3-yl-methyl)-acrylic acid 4-chloro-6-naphthalen-1-yl-tetrahydro-pyran-2-yl methyl ester], in assay [1] (Leishmania donovani), the IC50 was 8.76 µg/mL and 20 µM.

With `C=C(C(=O)OCC1CC(Cl)CC(c2cccc3ccccc23)O1)C(O)c1ccncc1` (stereo not shown) [8f, 2-(Hydroxy-pyridin-4-yl-methyl)-acrylic acid 4-chloro-6-naphthalen-1-yl-tetrahydro-pyran-2-yl methyl ester], the IC50 in assay [1] (Leishmania donovani) is 8.96 µg/mL and 20.5 µM.

As to `C=C(C(=O)OCC1CC(Cl)CC(c2cccc3ccccc23)O1)C(O)c1ccc(Br)cc1` (stereo not shown) [8h, 2-[(4-Bromo-phenyl)-hydroxy-methyl]-acrylic acid 4-chloro-6-naphthalen-1-yl-tetrahydro-pyran-2-ylmethyl ester], the IC50 in assay [1] (Leishmania donovani) is 17.2 µg/mL and 33.4 µM.

On to `C=C(C(=O)OCC1CCCC(CC)O1)C(O)c1ccccc1[N+](=O)[O-]` (stereo not shown) [9a, 2-[Hydroxy-(2-nitro-phenyl)-methyl]-acrylic acid 6-ethyl-tetrahydro-pyran-2-ylmethyl ester], for which the IC50 in assay [1] (Leishmania donovani) is 5.64 µg/mL and 16.1 µM. For the same molecule, in the assay with human red blood cells, the “SIrb (selectivity index on red blood cell) = HC50/IC50” value was more than 70.94.

`C=C(C(=O)OCC1CCCC(CC)O1)C(O)c1cccc([N+](=O)[O-])c1` (stereo not shown) [9b, 2-[Hydroxy-(3-nitro-phenyl)-methyl]-acrylic acid 6-ethyl-tetrahydro-pyran-2-ylmethyl ester]: in assay [1] (Leishmania donovani), the IC50 is 13.8 µg/mL and 39.4 µM.

Regarding `C=C(C(=O)OCC1CCCC(CC)O1)C(O)c1ccc([N+](=O)[O-])cc1` (stereo not shown) [9c, 2-[Hydroxy-(4-nitro-phenyl)-methyl]-acrylic acid 6-ethyl-tetrahydro-pyran-2-ylmethyl ester], the IC50 in assay [1] (Leishmania donovani) is 7.03 µg/mL and 20.1 µM. Also, in the assay with human red blood cells, the “SIrb (selectivity index on red blood cell) = HC50/IC50” value was more than 56.91.

Regarding `C=C(C(=O)OCC1CCCC(CC)O1)C(O)c1ccccn1` (stereo not shown) [9d, 2-(Hydroxy-pyridin-2-yl-methyl)-acrylic acid 6-ethyl-tetrahydro-pyran-2-ylmethyl ester], in assay [1] (Leishmania donovani), the IC50 was 72.3 µg/mL and 240 µM.

Regarding `C=C(C(=O)OCC1CCCC(CC)O1)C(O)c1cccnc1` (stereo not shown) [9e, 2-(Hydroxy-pyridin-3-yl-methyl)-acrylic acid 6-ethyl-tetrahydro-pyran-2-ylmethyl ester], the IC50 in assay [1] (Leishmania donovani) is 17.7 µg/mL and 57.9 µM.

Regarding `C=C(C(=O)OCC1CCCC(CC)O1)C(O)c1ccncc1` (stereo not shown) [9f, 2-(Hydroxy-pyridin-4-yl-methyl)-acrylic acid 6-ethyl-tetrahydro-pyran-2-ylmethyl ester], the IC50 in assay [1] (Leishmania donovani) was 57.8 µg/mL and 189 µM.

Take `C=C(C(=O)OCC1CCCC(CC)O1)C(O)c1ccc(Br)cc1` (stereo not shown) [9h, 2-[(4-Bromo-phenyl)-hydroxy-methyl]-acrylic acid 6-ethyl-tetrahydro-pyran-2-ylmethyl ester]: in assay [1] (Leishmania donovani), the IC50 was 2.22 µg/mL and 5.81 µM. Further, the “SIrb (selectivity index on red blood cell) = HC50/IC50” value in the assay with human red blood cells is more than 180.19.

Take `C[C@@H]1[C@H](O)[C@@H](C)/C=C/C=C/C=C/C=C/C=C/C=C/C=C/[C@H](O[C@@H]2O[C@H](C)[C@@H](O)[C@H](N)[C@@H]2O)C[C@@H]2O[C@](O)(C[C@@H](O)C[C@@H](O)[C@H](O)CC[C@@H](O)C[C@@H](O)CC(=O)O[C@H]1C)C[C@H](O)[C@H]2C(=O)O` [Amphotericin B, reference compound]: the IC50 in assay [1] (Leishmania donovani) is 0.35 µg/mL and 380 nM; in the assay on L. donovani, 0.62 µM. The “SIrb (selectivity index on red blood cell) = HC50/IC50” value in the assay with human red blood cells was found to be 33.05.

Consider `C=C(C(=O)Oc1ccccc1C(=O)OC)C(O)c1ccccc1[N+](=O)[O-]` (stereo not shown) [compound 1], for which the IC50 in the assay on Leishmania (setting [4]) is 28.3 µM.

For the molecule `COC(=O)c1ccccc1O` [compound 2, methyl salicylate], the IC50 in the assay with Leishmania (setting [4]) is 1720 µM.

On to `C=C(C(=O)OC)C(O)c1ccccc1[N+](=O)[O-]` (stereo not shown) [compound 3], for which the IC50 in the assay with Leishmania (setting [4]) was 347 µM.

Regarding `C=CCc1ccc(O)c(OC)c1` [compound 4, eugenol], in the assay on Leishmania (setting [5]), the IC50 is 77.5 µM.

Turning to `CC[C@@H]1CCC[C@H](CO)O1` [compound 5], the IC50 with Leishmania (setting [5]) was 4.7 µM.

For `CC[C@@H]1CCC[C@H](CO)O1` [compound 7], the IC50 in assay [1] (Leishmania donovani) was > 400 µg/mL and > 2.78 mM. Moreover, in assay [3], the “Calculated ED50” value was 41.67 μmol·kg^–1.
